{"source": "patent US20050019746A1", "about": "“Apoptosis-related kinase/GPCRs” (EiRx Therapeutics Limited, priority 2003, published 2005)", "system": "U251 cells", "assay": "Anchorage Independence/Soft Agar Assay, U251", "format": "cell-based, human", "conditions": "soft agar, experiment n = 1", "experimental": "The Anchorage Independence/Soft Agar Assay allows assessment of the influence of modulation of gene expression on clonal tumouroid formation by observing and quantifying tumouroid morphology and colony number over an extended period of logarithmic growth thereby ascertaining any cell death is induced.\nCells are seeded into a 6-well plate and allowed to adhere overnight at 37° C. in a humidified atmosphere containing 5% CO2 in air. Cells are next transfected with siRNA Oligomers, at a concentration of 2 μg, against the genes of interest. Transfections continued for 4 hrs after which the transfection solution is removed and cells are refed with fresh medium and allowed incubate overnight. Transfected cells are next harvested for seeding into soft agar assay as described below. […] Colonies formed are subsequently stained with Crystal Violet, their morphology is assessed and colonies formed are enumerated at a 4× magnification.\nThe cytotoxic effect of each gene is determined by a reduction in colony number compared to our MS control, but any influence on the morphology of the colony is also noted.\nExamples of genes with a cytotoxic effect on knockdown as detected by the soft agar assay are outlined in Table 14. […]", "data": [{"substance": "siRNA MPSK1: sense GGGUUAUGCCCACAGAGACtt, antisense GUCUCUGUGGGCAUAACCCtt (sense GGGUUAUGCCCACAGAGACTT; antisense GUCUCUGUGGGCAUAACCCTT; chemistry not given here)", "values": [{"measurement": "PERCENTAGE SURVIVAL RELATIVE TO MS, U251, n = 1", "value": 18, "unit": "%"}]}]}
